These results are taken from patent publication US20090074861A1, “STABLE TABLET CONTAINING DROXIDOPA” (DAINIPPON SUMITOMO PHARMA CO., LTD., priority 2005, published 2009).

The series can be described thus: Coloring and deliquescence of compressed droxidopa/additive mixtures on preservation. It is filed as physicochemical. On the procedure: Droxidopa and the following excipients were mixed at 1:1 in a mortar and the mixture was compressed at a pressure of 20 kgf/cm^2 using an oil hydraulic press (manufactured by RIKEN). The obtained tablets were preserved under the respective conditions of 60° C. […] The 60° C. 2 week preservation product was measured for the color difference from the initial stage preservation product using a spectral calorimeter (SE-2000: manufactured by Nippon Denshoku Industries Co., Ltd.).
Droxidopa and the following excipients were mixed at 4:1 in a mortar and the mixture was compressed at a pressure of 20 kgf/cm^2 using an oil hydraulic press (manufactured by RIKEN) .

Turning to `N[C@H](C(=O)O)[C@H](O)c1ccc(O)c(O)c1` [droxidopa alone (without disintegrant), droxidopa], the “60° C. × 2 W color difference” value runs as follows: (droxidopa:additive 1:1 compressed tablet, difference from initial stage product) 2.73; (droxidopa:additive 4:1 compressed tablet) 2.73.
